Results from PMC9235172, “SHTXTHHly, an extracellular secretion platform for the preparation of bioactive peptides and proteins in Escherichia coli” (Microbial Cell Factories, 2022).
Residues, ends and D or L forms follow the SMILES beside them.

Tests used:
[1] = test system: E. coli 25922; settings: E. coli 25922 in MHB, 37 °C, 18 h, OD600, triplicate
Method: Fig. 4 Bioactivities determination of the produced AMPs. Different concentrations (0–4000 nM) of cCeA and rCeA (A), or cLL37 and rLL37 (B), were incubated with E. coli 25,922 at 37 °C for 18 h, then the OD600 values were detected. Different concentrations (0–64 μM) of cA12 and rA12 (C) were incubated with U87 MG cells for 8 h, and the number of live cells was measured with the CCK-8 reagent.
Overnight cultures of E. coli 25922 were diluted with fresh Mueller–Hinton Broth (MHB) to an optical density at 600 nm (OD600) at 0.1 and further diluted at 1:100 with fresh MHB. Then 100 μL bacterial suspension was added in triplicate to the 96-well plate. The commercial (APeptides, China) and bio-produced Cecropin A or LL37 were serially diluted with MHB medium and added into the 96-well plate to final concentrations of 2 to 2000 nM. The plate was incubated at 37 °C for 18 h, and the OD600 values were measured with Synergy LX multi-mode reader (BioTek, USA). Broth with bacterial inoculum without AMP and broth alone were used as control groups in which the relative biomass was set as 1 and 0, respectively.

[2] = test system: Mo7e cells; assay: Mo7e cell proliferation, CCK-8; assay type: cell-based; settings: 1 pM-100 nM, 4 days, read-out: EC50, promotion of Mo7e cells' proliferation
Method: Fig. 5 Bioactivities determination of RGDS, IL-15, and ADH in the SHTXTHHly fusion form. U87 MG cells were incubated with SHTRGDSTHHly/SHTRGESTHHly, mouse anti-S tag antibody, and the second antibody in sequence, then the cell staining was measured by FACS (A). U87 MG cells were incubated with SHTRGDSTHHly/SHTRGESTHHly and transferred into a fibronectin-coated plate. At different times, the attached cells were subjected to the CCK-8 reagent for quantification (B). In other experiments, cells were stained with DiO dye (green) and observed with a fluorescence microscope (C). Mo7e cells were incubated with different concentrations (1 pM-100 nM) of IL-15 and SHTIL15THHly for 4 days, and the cell numbers were measured with a CCK-8 reagent (D). The activities of ADH and SHTADHTHHly were compared using Ethyl Acetoacetate as the substrate and NADH as the co-factor (E). The activity was measured at 340 nm to monitor the decrease in the absorbance of NADH quantitatively. S: Slope. […] PBS is a blank control.
Mo7e cells were plated in a 96-well plate with a cell number of twenty thousand per well. After 4 h incubation, serially diluted IL-15 and SHTIL15THHly were added. After 4 days of incubation, the proliferation of cells was measured using the CCK-8 reagent.

Row | Compound | minimum inhibitory concentration (MIC) [1] [µM] | EC50 [2] [nM]
1 | CC[C@H](C)[C@H](NC(=O)CNC(=O)[C@H](CC(=O)O)NC(=O)[C@H](CCCNC(=N)N)NC(=O)[C@@H](NC(=O)[C@H](CC(N)=O)NC(=O)[C@H](CCC(N)=O)NC(=O)CNC(=O)[C@@H](NC(=O)[C@H](CCCCN)NC(=O)[C@H](CCC(=O)O)NC(=O)[C@@H](NC(=O)[C@H](CCCCN)NC(=O)[C@H](CCCCN)NC(=O)[C@H](Cc1ccccc1)NC(=O)[C@H](CC(C)C)NC(=O)[C@H](CCCCN)NC(=O)[C@H](Cc1c[nH]c2ccccc12)NC(=O)[C@@H](N)CCCCN)[C@@H](C)CC)C(C)C)[C@@H](C)CC)C(=O)N[C@H](C(=O)N[C@@H](CCCCN)C(=O)N[C@@H](C)C(=O)NCC(=O)N1CCC[C@H]1C(=O)N[C@@H](C)C(=O)N[C@H](C(=O)N[C@@H](C)C(=O)N[C@H](C(=O)N[C@H](C(=O)NCC(=O)N[C@@H](CCC(N)=O)C(=O)N[C@@H](C)C(=O)N[C@H](C(=O)N[C@@H](CCC(N)=O)C(=O)N[C@H](C(=O)N[C@@H](C)C(=O)N[C@@H](CCCCN)C(=O)O)[C@@H](C)CC)[C@@H](C)O)C(C)C)C(C)C)C(C)C)[C@@H](C)CC [cCeA, Cecropin A] (H-KWKLFKKIEKVGQNIRDGIIKAGPAVAVVGQATQIAK-OH) | 0.85 | –
2 | CC[C@H](C)[C@H](NC(=O)[C@H](CCCCN)NC(=O)[C@H](CCC(=O)O)NC(=O)[C@H](CCCCN)NC(=O)[C@H](CO)NC(=O)[C@H](CCCCN)NC(=O)[C@H](CCCNC(=N)N)NC(=O)[C@H](Cc1ccccc1)NC(=O)[C@H](Cc1ccccc1)NC(=O)[C@H](CC(=O)O)NC(=O)CNC(=O)[C@H](CC(C)C)NC(=O)[C@@H](N)CC(C)C)C(=O)NCC(=O)N[C@@H](CCCCN)C(=O)N[C@@H](CCC(=O)O)C(=O)N[C@@H](Cc1ccccc1)C(=O)N[C@@H](CCCCN)C(=O)N[C@@H](CCCNC(=N)N)C(=O)N[C@H](C(=O)N[C@H](C(=O)N[C@@H](CCC(N)=O)C(=O)N[C@@H](CCCNC(=N)N)C(=O)N[C@H](C(=O)N[C@@H](CCCCN)C(=O)N[C@@H](CC(=O)O)C(=O)N[C@@H](Cc1ccccc1)C(=O)N[C@@H](CC(C)C)C(=O)N[C@@H](CCCNC(=N)N)C(=O)N[C@@H](CC(N)=O)C(=O)N[C@@H](CC(C)C)C(=O)N[C@H](C(=O)N1CCC[C@H]1C(=O)N[C@@H](CCCNC(=N)N)C(=O)N[C@H](C(=O)N[C@@H](CCC(=O)O)C(=O)N[C@@H](CO)C(=O)O)[C@@H](C)O)C(C)C)[C@@H](C)CC)C(C)C)[C@@H](C)CC [cL3, LL37] | 1.87 | –
3 | IL-15: control monomeric IL-15 | – | 0.294
